The source made the active and inactive calls. No cut-off for these calls is given here.
Legend:
Sus scrofa [1] = species on record: Sus scrofa; assay: Inhibition of pig lung ACE at 100 umol/L assessed as enzyme restrain rate; design: scale not given: the % may be the effect or the level left
Sus scrofa [2] = species on record: Sus scrofa; assay: Inhibition of pig lung ACE at 10 umol/L assessed as enzyme restrain rate; design: scale not given: the % may be the effect or the level left
Sus scrofa [3] = species on record: Sus scrofa; assay: Inhibition of pig lung ACE at 1 umol/L assessed as enzyme restrain rate; design: scale not given: the % may be the effect or the level left
Sus scrofa [4] = species on record: Sus scrofa; assay: Inhibition of pig lung ACE at 100 nmol/L assessed as enzyme restrain rate; design: scale not given: the % may be the effect or the level left
Sus scrofa [5] = species on record: Sus scrofa; assay: Inhibition of pig lung ACE at 10 nmol/L assessed as enzyme restrain rate; design: scale not given: the % may be the effect or the level left
Sus scrofa [6] = species on record: Sus scrofa; assay: Inhibition of pig lung ACE at 100 pmol/L assessed as enzyme restrain rate; design: scale not given: the % may be the effect or the level left
Sus scrofa [7] = species on record: Sus scrofa; assay: Inhibition of pig lung ACE at 10 pmol/L assessed as enzyme restrain rate; design: scale not given: the % may be the effect or the level left
Sus scrofa [8] = species on record: Sus scrofa; assay: Inhibition of pig lung ACE at 1 pmol/L assessed as enzyme restrain rate; design: scale not given: the % may be the effect or the level left
Rattus norvegicus [9] = assay: Acute antihypertensive activity in two-kidney one-clip renal hypertensive rat assessed as reduction in systolic arterial pressure at 100 mg/kg/day; assay type: functional, organism-based
Rattus norvegicus [10] = assay: Acute antihypertensive activity in two-kidney one-clip renal hypertensive rat assessed as reduction in diastolic arterial pressure at 100 mg/kg/day; assay type: functional, organism-based

Row | Compound | Activity (Sus scrofa [1]) [%] | Activity (Sus scrofa [2]) [%] | Activity (Sus scrofa [3]) [%] | Activity (Sus scrofa [4]) [%] | Activity (Sus scrofa [5]) [%] | Activity (Sus scrofa [6]) [%] | Activity (Sus scrofa [7]) [%] | Activity (Sus scrofa [8]) [%] | Activity (Rattus norvegicus [9]) | Activity (Rattus norvegicus [10])
1 | C[C@H](CS)C(=O)N1CCC[C@H]1C(=O)O | 94 | 94 | 95 | 97 | 96 | 48 | 47 | 42 | – | –
2 | CC1OCc2c(ccc(O)c2O)C1=O (racemic) | 77 | 61 | 61 | 74 | 87 | 44 | 41 | 34 | Active | Active
